Literature values in patent US5972375A, “Polyvinyl alcohol compositions prepared by crosslinking in a freezing step” (Implico BV, priority 1992, dated 1999).
Read-outs that look alike come from different tables or passages of the source.

How the values were obtained:
Rat [1] = system: Rat
Rat [2] = system: Rat; remark: listed apart in the source

In the case of CC(C)=O [Acetone], the “Oral absorption LD50” value (Rat [1]; oral) is given as 9800 mg/kg.

For CN(C)C=O [DMS, Dimethylformamide], the “Oral absorption LD50” value (Rat [1]; oral) is given as 2800 mg/kg.

For C[S+](C)[O-] [DMSO, dimethyl sulphoxide], the “Intravenous route LD50” value (Dog; intravenous) is listed as 2.5 g/kg of Body weight, the “Oral route LD50” value (Dog; oral) is listed as > 10 g/kg of Body weight and the “Percutaneous route LD50” value (Dog; percutaneous) is listed as > 11 g/kg of Body weight. For the same molecule, the “Inhalation, non-lethal at” value (Rat [2]; 24 hr) was 2900 mg/m^3, the “Inhalation, non-lethal at” value (Rat [2]; 40 hr) was 2000 mg/m^3 and the “Intravenous route LD50” value (Rat [2]; intravenous) was 5.4 g/kg of Body weight. The “Percutaneous route LD50” value (Rat [2]; percutaneous (undiluted)) was 40 g/kg of Body weight, the “Intravenous route LD50” value (Primate; intravenous) was 4 g/kg of Body weight and the “Oral route LD50” value (Primate; oral) was > 4 g/kg of Body weight. The “Percutaneous route LD50” value (Primate; percutaneous) was > 11 g/kg of Body weight, the “Oral absorption LD50” value (Rat [1]; oral) was 19700 mg/kg and the “Percutaneous route LD50” value (Mouse) was 50 g/kg of Body weight.

In the case of CCO [Ethanol], the “Oral absorption LD50” value (Rat [1]; in vivo, po) is given as 7100 mg/kg.

For OCC(O)CO [Glycerol], the “Oral absorption LD50” value (Rat [1]; in vivo, po) is given as 12600 mg/kg.

In the case of CN1CCCC1=O [N-Methylpyrrolidone], the “Oral absorption LD50” value (Rat [1]; oral) is listed as 4200 mg/kg.
